Data as given in a melting point compilation (Tetko et al.).

| Compound | melting point [°C] |
| --- | --- |
| CCNc1nc(C)c(C(=O)OCC)s1 | 102 to 104 |
| O=[N+]([O-])c1cc(NCC2CC2)ccc1S(=O)(=O)NCC1CC1 | 132 to 134 |
| O=C(Cc1ccccc1F)N1CCNCC1 | 77 to 79 |
| O=C(O)c1ccc(-c2noc(=O)[nH]2)cc1 | 354 to 356 |
| O=Cc1cnc(N2CCCC2)nc1 | 118 to 120 |
| Nc1ncc(Cl)cc1S(N)(=O)=O | 226 to 228 |
| NC(=O)c1nnc(O)nc1O | 294 to 296 |
| CCCCC(NC(=O)C(C)NC(C)=O)C(=O)O (stereo not given) | 143 to 145 |
| O=C(O)C1CCN(C(=O)NC2CC2)CC1 | 123 to 125 |
| O=[N+]([O-])c1ccc(Cl)nc1O | 139 to 141 |
| Cc1cc(C)cc(C(=O)N2CCNCC2)c1 | 125 to 127 |
| Cc1nnc(S)n1C | 112 to 115 |
| OC1CCc2ccc(F)cc21 (stereo not given) | 41 to 43 |
| COC(=O)C#Cc1ccc(F)cc1F | 58 to 60 |
| CNC1CCN(C2CCOCC2)CC1 | 32 to 34 |
| NC(=NO)C(c1ccccc1)c1ccccc1 | 124 to 126 |
| CC(NC(=O)Nc1ccccc1)C(=O)O (stereo not given) | 180 to 182 |
| CN(N)C(N)=O | 108 to 110 |
| Cn1c(=O)c2[nH]c(S)nc2n(C)c1=O | 328 to 330 |
| Cc1nc2c(C#N)cnn2c(O)c1CC(=O)O | 275 to 277 |
| O=C(O)c1cc(F)cc2[nH]cnc12 | 339 to 341 |
| CNS(=O)(=O)c1ccc(S(=O)(=O)Cl)cc1 | 99 to 101 |
| CN(C)c1ccc([N+](=O)[O-])cc1C(=O)O | 149 to 151 |
| Cc1nc2c(cnn2C(C)C)cc1C(=O)O | 166 to 168 |

| Compound | melting point [°C] |
| --- | --- |
| Cn1cc(C(=O)O)ccc1=O | 236 to 238 |
| CC(C)(C)OC(=O)NCCCC(N)=S | 94 to 96 |
| O=C(O)C1CCCN1C(=O)c1ccccc1OC(F)F (stereo not given) | 124 to 126 |
| O=C1CC(c2ccccc2)C(=O)O1 (stereo not given) | 51 to 55 |
| O=C(O)c1ccc(Cl)c(S(=O)(=O)N2CCCC2)c1 | 239 to 241 |
| CC(=O)c1cc(C(=O)C(Cl)(Cl)Cl)n(C)c1 | 133 to 135 |
| Fc1ccc(C(c2ccc(F)cc2)N2CCNCC2)cc1 | 89 to 92 |
| O=C(O)CCc1ccncc1 | 209 to 211 |
| NS(=O)(=O)c1cccc(NC(=O)c2ccc(C(=O)O)s2)c1 | 308 to 310 |
| O=C(O)c1sc2cccc([N+](=O)[O-])c2c1Cl | 219 to 221 |
| CC(C)(CN)C(N)=O | 72 to 74 |
| O=C1C(Br)CCN1c1ccc(F)c(Cl)c1 (stereo not given) | 99 to 101 |
| CC(C)(C)c1nnc(CCl)o1 | 42 to 44 |
| O=Cc1ccc(OCc2occc2C(=O)O)cc1 | 145 to 147 |
| O=C1CC2(CCCc3ccccc32)C(=O)O1 (stereo not given) | 99 to 101 |
| CNc1cc(Cl)cc(CO)c1 | 49 to 51 |
| CC(C)(C)c1cc(NC(=O)CBr)on1 | 139 to 141 |
| [N-]=[N+]=NC(C(=O)NC1CC1)c1ccc(F)cc1 (stereo not given) | 53 to 55 |
| COc1ccc(NS(=O)(=O)c2ccc(C(C)=O)cc2)cc1 | 121 to 123 |
| O=[N+]([O-])c1cc(S(=O)(=O)N2CCOCC2)ccc1O | 217 to 219 |
| O=S(=O)(Cl)c1cn[nH]c1 | 99 to 101 |
| CCn1cnnc1CNC(=O)OCC(F)(F)F | 102 to 104 |
| COC(=O)C1CNNC(=O)C1 (stereo not given) | 119 to 121 |
| O=c1cc(CCl)nc2sccn12 | 180 to 182 |

| Compound | melting point [°C] |
| --- | --- |
| O=C(O)CCNC(=O)c1ccc(Cl)cc1 | 167 to 169 |
| Cc1nc(S)sc1CC(=O)O | 205 to 207 |
| CC(Cl)c1nc2scc(-c3cccs3)c2c(=O)[nH]1 (stereo not given) | 241 to 243 |
| CCOC(=O)c1c(C)n(C2CCCC2)c2ccc(O)cc12 | 228 to 230 |
| Cc1nc2c(c(C)c1CN)c(=O)[nH]n2C | 311 to 313 |
| O=C(O)c1ccc(Cl)c(S(=O)(=O)N2CCCCC2)c1 | 218 to 220 |
| O=C(O)c1ccc(Cl)c(S(=O)(=O)Nc2ccc(Br)cc2)c1 | 225 to 227 |
| N#Cc1cccc(CCl)c1 | 67 to 70 |
| COC(=O)NC(Cc1ccccc1)C(=O)O (stereo not given) | 75 to 77 |
| COC(=O)c1ccc(F)c(Cl)c1F | 47 to 49 |
| O=C(O)c1c(F)ccc(S(=O)(=O)NC2CC2)c1F | 134 to 136 |
| NS(=O)(=O)c1cnccn1 | 166 to 168 |
| CC(=O)NCc1ccc(C(=O)CCl)cc1 | 139 to 141 |
| CC(C)(C)OC(=O)N1C2CCC1CC(O)C2 (stereo not given) | 140 to 142 |
| CC1CCN(CC(O)CN)CC1 (stereo not given) | 63 to 65 |
| CN(C)CCC(=O)O | 130 to 132 |
| CCCS(N)(=O)=O | 47 to 49 |
| CN(C)S(=O)(=O)c1ccc(S(=O)(=O)Cl)c([N+](=O)[O-])c1 | 153 to 155 |
| O=C(O)c1ccccc1NC(=O)C(F)(F)F | 167 to 169 |
| COc1ncnc(N)c1C=O | 197 to 199 |
| CNC(=S)NC1CC1 | 108 to 110 |
| CC(C)(C)OC(=O)N1CCC2(CC1)CC2C(=O)O (stereo not given) | 123 to 125 |

Now from value to molecule:

| melting point [°C] | Compound |
| --- | --- |
| 220 to 222 | CC(NC1=NS(=O)(=O)c2ccccc21)C(=O)O (stereo not given) |
| 64 to 66 | Cc1ccc(O)c(C=O)n1 |
| 165 to 167 | O=C(O)c1nc(NCc2ccccc2)ncc1Cl |
| 87 to 89 | O=Cc1cnc(-c2ccccc2)s1 |
| 161 to 163 | O=C1Nc2ccccc2C1O (stereo not given) |
| 176 to 178 | Cc1nn2c(nc(Cl)c3ccccc32)c1Cl |
| 162 to 164 | Cc1ccc(-n2c(N)nc3cc(C)ccc32)cc1 |
| 86 to 88 | Ic1ccc2ncccc2c1 |
| 151 to 153 | Cn1cc(C=O)c(-c2cc3ccccc3o2)n1 |
| 130 to 132 | N#Cc1cccc([N+](=O)[O-])c1O |
| 92 to 94 | CC1CC1c1cc(N)n(-c2ccccc2)n1 (stereo not given) |
| 209 to 211 | Cc1ccc(-c2cc(C(=O)O)n[nH]2)s1 |
| 141 to 143 | O=C(O)C1CC(=O)N(c2ccccc2Cl)C1 (stereo not given) |
| 151 to 153 | O=C(O)/C=C/c1cccc(OCc2ccccc2)c1 |
| 55 to 57 | Cc1cccc(NC(=O)CN2CCNCC2)c1C |
| 206 to 208 | O=C(O)c1cc(OCC(F)(F)F)c2ccccc2n1 |
| 203 to 205 | CCC(C)C(NC1=NS(=O)(=O)c2ccccc21)C(=O)O (stereo not given) |
| 146 to 148 | CC(C)c1cc(C(=O)O)nn1-c1ccccn1 |
| 193 to 195 | Nc1nnc(Cc2cccc(F)c2)s1 |
| 99 to 101 | COc1ccccc1SCC(=O)O |
| 94 to 96 | Nc1nc(Cl)ccc1Cl |
| 86 to 88 | Cn1nnnc1-c1cccc(S(=O)(=O)Cl)c1 |
| 78 to 80 | Sc1nnnn1Cc1ccco1 |
| 38 to 40 | CCc1cccnc1N |
| 87 to 89 | O=c1c(Cl)c(Cl)cnn1Cc1ccccc1 |

| melting point [°C] | Compound |
| --- | --- |
| 118 to 120 | CCn1nnnc1-c1cccc(N)c1 |
| 187 to 189 | CCOc1cc(C=CC(=O)O)ccc1OCCOc1ccccc1 |
| 157 to 159 | Nc1ccc(Cl)c(S(=O)(=O)N2CCOCC2)c1 |
| 56 to 58 | CCOC(=O)c1c(C(C)(C)C)csc1N |
| 84 to 86 | CCOC(=O)c1c(CBr)oc2ccccc12 |
| 301 to 303 | O=C(NC1CC1)c1cc(S)nc2ccccc12 |
| 140 to 142 | Cc1cccc(-c2nc(C)n[nH]2)c1 |
| 104 to 106 | Nc1cccc(NC(=O)CCn2cccn2)c1 |
| 40 to 42 | Nc1cc(-c2ccco2)ccc1F |
| 52 to 54 | CN(C)C(=O)c1cccc(Br)c1 |
| 204 to 206 | Cn1cnnc1-c1ccnc(N)c1 |
| 87 to 89 | Clc1ccc(NCc2ccccn2)cc1 |
| 126 to 128 | CNc1ccc(Oc2ccccn2)cc1 |
| 87 to 89 | Cc1cc(C(=O)CCl)c(C)n1-c1ccon1 |
| 257 to 259 | Cc1ccc(-c2nn(-c3ccccc3Cl)cc2C(=O)O)cc1 |
| 83 to 85 | Nc1ccc(I)cc1Br |
| 59 to 61 | Cc1ccccc1CCNC(=O)C(C)Cl (stereo not given) |
| 120 to 122 | O=C(O)Cc1ccc(N2CCCC2=O)cc1 |
| 154 to 156 | CC(NC(=O)OCc1ccccc1)C(=O)N1CCNC(=O)C1 (stereo not given) |
| 86 to 88 | CS(=O)(=O)c1cccc(C(=O)c2ccccc2)c1 |
| 103 to 105 | NC(=O)c1ccc(CO)c(F)c1 |
| 148 to 150 | O=C(O)CCc1ncc(-c2ccccc2)o1 |
| 142 to 144 | OCc1cn(-c2ccc(Cl)cc2)nn1 |
| 59 to 61 | CC(CC(=O)O)C(=O)c1cccc(F)c1 (stereo not given) |
| 99 to 101 | Cc1ccccc1-c1nnc(CCl)o1 |

| melting point [°C] | Compound |
| --- | --- |
| 155 to 157 | Nc1ncncc1-c1ccccc1 |
| 251 to 253 | Cc1nc(-c2ccc(F)cc2)sc1C(=O)O |
| 166 to 168 | Nc1[nH]ncc1-c1ccc2c(c1)OCO2 |
| 126 to 128 | CC(Oc1cccnc1)C(=O)O (stereo not given) |
| 158 to 160 | Brc1cnc2nccnc2c1 |
| 92 to 96 | CCNC(=S)n1ncc(C(=O)OCC)c1N |
| 117 to 119 | O=C(O)CSc1ccc(Br)cc1 |
| 94 to 96 | Cc1cc2ccccc2nc1Br |
| 74 to 76 | O=C(O)CC1OCCc2ccccc21 (stereo not given) |
| 99 to 101 | Nc1ccnc(CO)c1 |
| 157 to 159 | CNc1ccc(-c2ccccc2)nn1 |
| 141 to 143 | O=C(CBr)c1ccc2c(c1)Cc1ccccc1-2 |
| 260 to 262 | O=c1cc(-c2ccccc2)c2cc(Cl)c(O)cc2o1 |
| 69 to 71 | CNc1ccc2ccccc2n1 |
| 146 to 148 | O=C(O)[C@@H]1CCCN1C(=O)NCc1cccc(Br)c1 |
| 137 to 139 | CCc1ccc(OCc2nnc(S)n2Cc2ccccc2)cc1 |
| 105 to 107 | CC(=O)CC(=O)Nc1cccc(Cl)c1 |
| 255 to 257 | Cc1cc(C(=O)O)ccc1S(N)(=O)=O |
| 99 to 101 | CC(C)(C)OC(=O)c1ccc(N)cc1 |
| 117 to 119 | Nc1cccc(-c2ccc3c(c2)OCCO3)n1 |
| 159 to 161 | Nc1cccc(NC(=O)NCc2ccncc2)c1 |
| 224 to 226 | Cc1cc(C)nc(NCc2cccc(C(=O)O)c2)n1 |
| 139 to 141 | Nc1cccc(NC(=O)C2CCCCC2)c1 |
| 73 to 75 | COc1ccc(C)cc1C(=O)CBr |
| 77 to 79 | OCCNc1cccnn1 |
